Values quoted from earlier work as cited in US20030206958A1, “Chitosan biopolymer for the topical delivery of active agents” (priority 2002, published 2003).

For `CC1=C(/C=C/C(C)=C/C=C/C(C)=C/C(=O)O)C(C)(C)CCC1` [tretinoin, all-trans retinoic acid], the Patients with irritation (topical (Gilchrest, 1997)) is given as 90 % of patients and the “Patients discontinuing treatment because of irritation” value (topical (Stam-Posthuma et al., 1998)) is given as ~50 % of patients.
